These results are taken from patent publication US10335374B2, “Tablet composition for anti-tuberculosis antibiotics” (priority 2014, dated 2019).

The subject of data set [1] is Mycobacterium Tuberculosis Infected Macrophages. The conditions noted are these: intracellular, published study; cited from earlier work.
Data set [2] deals with M. tuberculosis H37Rv. The data set is described as follows: Minimum bactericidal concentration (kill kinetics, 21 days). The class given is cell-based. The conditions noted are these: for MBC: Mycobacterium tuberculosis, H37RV.
Data set [3] has as its system Murine J774 macrophages infected with a luminescent strain of H37Rv. The class given is cell-based, M. tuberculosis. Conditions: intracellular.
Data set [4] has as its system M. tuberculosis H37Rv. In words: MIC, IC50 and IC90 under aerobic conditions (growth after five days). The class given is cell-based, Mycobacterium tuberculosis.
Data set [5] deals with Vero African green monkey kidney cell line. In words: Cytotoxicity towards eukaryotic cells. Conditions: Chlorocebus sabaeus, 48 h, two days. In kind it is cell-based.
In the next data set the test system is H37Rv strain. In words: MIC of amikacin complexes, H37Rv strain. In kind it is cell-based, M. tuberculosis. Conditions: Mycobacterium tuberculosis, second set.
For a further data set, the system named is M. tuberculosis. In words: IC50, IC90 and MIC of amikacin one and two component complexes. The class given is cell-based. The conditions noted are these: Mycobacterium tuberculosis.
The conditions of data set [6]: clinical trials, compared to placebo groups; cited from earlier work.
The subject of the next data set is active TB. The data set is described as follows: MIC of capreomycin one and two component systems against active TB. The class given is cell-based, Mycobacterium tuberculosis. The protocol:
The first antibiotic complex investigated with one and two component systems consisted of the second-line TB drug capreomycin which was bound to the copper(II) cation and the aggregate forming water soluble unbranched polymer PEG-3350. […] MIC values are defined as the lowest concentration of an antimicrobial (i.e. antifungal, antibiotic or bacteriostatic) drug that will inhibit the visible growth of a microorganism after incubation and is a common unit used to describe the level of efficacy of an antibiotic against a bacterium.

The conditions of data set [7]: rats (oral); cited from earlier work.
For data set [8] the following is noted: in vivo; cited from earlier work.
Setting [9] is: Mycobacterium tuberculosis, H37RV, aerobic conditions, glucose series.
[10] abbreviates: Mycobacterium tuberculosis, H37RV, aerobic conditions, isoniazid-sucrose series, equal molar ratios.
[11] abbreviates: Mycobacterium tuberculosis, H37RV, aerobic conditions, rifampicin complexes, second set.

Converted amounts (≈) assume the structure as drawn. Like-named read-outs stand apart in the source and are kept apart here. Bounds are passed on as bounds.

Take `COc1c(N2CC[C@@H](C(C)(C)N)C2)c(F)cc2c(=O)c3c(=O)[nH]sc3n(C3CC3)c12` [ACH-702]: the “drop of activity, log(kill) units” value in [1] is on record as ~1.3 log(kill) units.

Take `NNC(=O)c1ccncc1` [Isoniazid (INH), isoniazid]: the MBC (in general, the lowest tested concentration that kills the bacteria rather than only halting them) in the data set on M. tuberculosis H37Rv [2] (isoniazid-sucrose series) was 0.3 µM (≈ 0.0411 µg/mL). Moreover, the “average log(kill) value” in data set [3] (average of table eight) was 2.5. For the same compound, the “Log Kill” value in data set [3] (concentration 1.2 μM) and in data set [3] (concentration 12 μM) was 2.5 each time. Moreover, the IC50 (as a rule, the point on the concentration scale where inhibition reaches its midpoint) with M. tuberculosis H37Rv [4] (setting [9]) was 470 nM; with M. tuberculosis H37Rv [4] (setting [10]) it was 630 nM; in data set [5], greater than 100000 nM. Also, the IC90 (as a rule, the concentration needed for an effect of 90%) with M. tuberculosis H37Rv [4] (setting [9]) turned out to be 620 nM; in the data set with M. tuberculosis H37Rv [4] (setting [10]) it was 1000 nM. In addition, the MIC (commonly the lowest concentration that inhibits growth of the organism) was 0.64 µM (≈ 0.0878 µg/mL) with M. tuberculosis H37Rv [4] (Mycobacterium tuberculosis, H37RV, aerobic conditions, glucose series, read-out: MIC) and 0.97 µM in the data set on M. tuberculosis H37Rv [4] (Mycobacterium tuberculosis, H37RV, aerobic conditions, isoniazid-sucrose series, equal molar ratios, read-out: MIC).

Regarding `Cn1nnc(-c2ccc(-c3ccc(N4C[C@H](CO)OC4=O)cc3F)cn2)n1` [Tedizolid], the “drop of activity, log(kill) units” value in data set [1] is given as “approximately 1.4 log(kill) units”.

Consider `NCC[C@H](O)C(=O)N[C@@H]1C[C@H](N)[C@@H](O[C@H]2O[C@H](CN)[C@@H](O)[C@H](O)[C@H]2O)[C@H](O)[C@H]1O[C@H]1O[C@H](CO)[C@@H](O)[C@H](N)[C@H]1O` [amikacin], for which the MIC in the data set with H37Rv strain was 0.256 µM. In the data set with M. tuberculosis, the IC50 worked out at 216 nM, the IC90 was 328 nM and the MIC came to 0.39 µM.

In the case of `COc1nc2ccc(Br)cc2cc1[C@@H](c1ccccc1)[C@@](O)(CCN(C)C)c1cccc2ccccc12` [bedaquiline, Bedaquiline], the “deaths in recipient groups” value in data set [6] is given as 11.4%.

As for `[Cl][Cu][Cl]` [copper(II) chloride], in the data set on active TB, the minimal inhibitory concentration (MIC) worked out at 0.39 µM. The median lethal dose (LD50) (usually the dose at which mortality reaches 50%) in [7] is reported as 140 mg/kg.

Take `CCO` [ethyl alcohol]: in data set [8], the median lethal dose (LD50) is on record as 14,000 mg/kg.

In the data set with M. tuberculosis H37Rv [2] (rifampicin complexes), `CO[C@H]1/C=C/O[C@@]2(C)Oc3c(C)c(O)c4c(O)c(c(/C=N/N5CCN(C)CC5)c(O)c4c3C2=O)NC(=O)/C(C)=C\C=C\[C@H](C)[C@H](O)[C@@H](C)[C@@H](O)[C@@H](C)[C@H](OC(C)=O)[C@@H]1C` [rifampicin] came in with an MBC of 0.06 µM (≈ 0.0494 µg/mL) and an MBC/MIC of 15. Also, the minimal inhibitory concentration (MIC) in the data set on M. tuberculosis H37Rv [4] (Mycobacterium tuberculosis, H37RV, H37Rv strain, rifampicin complexes, first set, read-out: MIC) was 0.006 µM (≈ 0.00494 µg/mL). Besides, in the data set with M. tuberculosis H37Rv [4] (setting [11]), half-maximal inhibition (IC50) required 3 nM and the 90% effect level (IC90) was put at 3 nM. The MIC in the data set on M. tuberculosis H37Rv [4] (Mycobacterium tuberculosis, H37RV, aerobic conditions, rifampicin complexes, second set, read-out: MIC) turned out to be 0.004 µM (≈ 0.00329 µg/mL).

Take `[Cl-].[Na+]` [sodium chloride]: the LD50 in data set [8] is 3,000 mg/kg.

For the compound `COc1cc(C=O)ccc1O` [vanillin], the LD50 in data set [8] is listed as 1,580 mg/kg.

In the case of capreomycin, in the data set with active TB, the minimum inhibitory concentration (MIC) stood at 3.13 µM.

In the case of copper (II) chloride dihydrate, the minimal inhibitory concentration (MIC) in the data set with M. tuberculosis H37Rv [4] (H37Rv strain, rifampicin complexes, first set) turned out to be 105.7 µM.

For copper gluconate, the LD50 in [7] is on record as 1710 mg/kg.

For the compound vitamin A, in data set [8], the LD50 was 2,000 mg/kg.
